The record followed here is PubChem BioAssay AID330 (DTP/NCI, 2004).

The structures appear in SMILES notation. “And” between values parts separate entries of the source, which are not always exact repeats. Identical values can stand only once. Inconclusive results and toxic doses are left out. Square brackets hold non-standard residues; d marks the D form. Peptide text beside a SMILES is read from it. * marks the point of attachment. Cbz = O=C(OCc1ccccc1)*; Nva = CCC[CH](N)C(=O)O

This assay has as its system P388 leukemia ip, CD2F1 mice, survival T/C. Nature of the assay: NCI In Vivo Anticancer Drug Screen. Data for tumor model P388 Leukemia (intraperitoneal) in CD2F1 (CDF1) mice. Conditions: endpoint: median survival time, higher = longer survival. In short, it runs like this: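 Mice carrying the transplanted tumor received test compound or vehicle. Survival was recorded in each group, and the value is the treated-group measurement divided by that of the vehicle-treated control group.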

[1] abbreviates: dose: 100.0 mg/kg/injection, schedule: Q01DX009 (ip), vehicle: saline with Tween-80.
Where [2] appears, read: dose: 50.0 mg/kg/injection, schedule: Q01DX005 (ip), vehicle: saline with Tween-80.
The mark [3] stands for this setting: dose: 100.0 mg/kg/injection, schedule: Q01DX005 (ip), vehicle: saline with Tween-80.
Where [4] appears, read: dose: 200.0 mg/kg/injection, schedule: Q01DX005 (ip), vehicle: saline with Tween-80.
The mark [5] stands for this setting: dose: 50.0 mg/kg/injection, schedule: Q01DX005 (ip), vehicle: Klucel (hydroxypropylcellulose) (HPC).
Where [6] appears, read: dose: 100.0 mg/kg/injection, schedule: Q01DX005 (ip), vehicle: Klucel (hydroxypropylcellulose) (HPC).
Setting [7] is: dose: 200.0 mg/kg/injection, schedule: Q01DX005 (ip), vehicle: Klucel (hydroxypropylcellulose) (HPC).
The mark [8] stands for this setting: dose: 50.0 mg/kg/injection, schedule: Q01DX009 (ip), vehicle: saline with Tween-80.
Setting [9] is: dose: 200.0 mg/kg/injection, schedule: Q01DX009 (ip), vehicle: saline with Tween-80.
The mark [10] stands for this setting: dose: 12.5 mg/kg/injection, schedule: Q01DX009 (ip), vehicle: distilled water + Tween-80.

For `Nc1nc(=S)c2[nH]c(=S)[nH]c2[nH]1`, the T/C reads like this: (dose: 25.0 mg/kg/injection, schedule: Q04DX003 (ip), vehicle: saline with Tween-80) 118 % of control; (dose: 50.0 mg/kg/injection, schedule: Q04DX003 (ip), vehicle: saline with Tween-80) 118 % of control; under setting [1], 118 % of control; (dose: 100.0 mg/kg/injection, schedule: Q04DX003 (ip), vehicle: saline with Tween-80) 118 % of control; (dose: 264.0 mg/kg/injection, schedule: Q04DX003 (ip), vehicle: saline with Tween-80) 150 % of control; (dose: 400.0 mg/kg/injection, schedule: Q01DX009 (ip), vehicle: saline with Tween-80) 113 % of control. The T/C (dose: 600.0 mg/kg/injection, schedule: Q04DX003 (ip), vehicle: saline with Tween-80) was 150 % of control.

Consider `CCN(CC)CCCC(C)N1CC2CCCCC2C1` (stereo unspecified), for which the T/C under setting [2] is 106 % of control, the T/C under setting [3] is 108 % of control and the T/C under setting [4] was 107 % of control.

With `CC(C)(C)CC(C)(C)C/C=C/CN1C(=O)c2ccccc2S1(=O)=O`, the T/C is 101 % of control under setting [5], 100 % of control under setting [6] and 108 % of control under setting [7].

As to `O=C1CCC(=O)N2c3ccccc3-c3ccccc3N12`, the T/C was 95 % of control under setting [8], 93 % of control under setting [1] and 93 % of control under setting [9].

For `C[N+](C)=C1C=CC(=C2C=CSC=C2)C=C1`, the T/C (dose: 12.5 mg/kg/injection, schedule: Q01DX009 (ip), vehicle: saline) is 108 % of control and 112 % of control.

In the case of `COc1c(CCl)cc(-c2sc3ccccc3c(=O)c2CCl)cc1CCl`, the T/C is 106 % of control and 93 % of control (dose: 25.0 mg/kg/injection, schedule: Q01DX005 (ip), vehicle: saline with Tween-80); 100 % of control and 114 % of control and 97 % of control under setting [2]; 100 % of control and 106 % of control under setting [3]; 108 % of control and 124 % of control under setting [4].

For `NC(=O)N(CCO)/N=C/C=C/c1ccc([N+](=O)[O-])o1`, the T/C by setting is: under setting [5], 106 % of control; under setting [6], 115 % of control; under setting [7], 108 % of control.

Take `CCCCCNC(=O)OCc1c(COC(=O)NCCCCC)c(-c2ccc(Cl)c(Cl)c2)n2c1CCC2`: the T/C reads like this: (dose: 6.25 mg/kg/injection, schedule: Q01DX009 (ip), vehicle: distilled water + Tween-80) 113 % of control; under setting [10], 101 % of control and 110 % of control; (dose: 25.0 mg/kg/injection, schedule: Q01DX009 (ip), vehicle: distilled water + Tween-80) 108 % of control and 116 % of control; (dose: 100.0 mg/kg/injection, schedule: Q01DX009 (ip), vehicle: distilled water + Tween-80) 165 % of control.

As for `CNCCNc1ccc(NCCNC)c2c1C(=O)c1ccccc1C2=O`, the T/C by setting is: (dose: 2.0 mg/kg/injection, schedule: Q01DX009 (ip), vehicle: acid diluted with saline) 183 % of control; (dose: 4.0 mg/kg/injection, schedule: Q01DX009 (ip), vehicle: acid diluted with saline) 175 % of control; (dose: 8.0 mg/kg/injection, schedule: Q01DX009 (ip), vehicle: acid diluted with saline) 175 % of control; under setting [10], 200 % of control; (dose: 16.0 mg/kg/injection, schedule: Q01DX009 (ip), vehicle: acid diluted with saline) 86 % of control.

`O=NNc1nccs1`: the T/C runs as follows: (dose: 1.56 mg/kg/injection, schedule: Q01DX009 (ip), vehicle: water) 96 % of control; (dose: 3.12 mg/kg/injection, schedule: Q01DX009 (ip), vehicle: water) 100 % of control; (dose: 6.25 mg/kg/injection, schedule: Q01DX009 (ip), vehicle: water) 99 % of control; (dose: 12.5 mg/kg/injection, schedule: Q01DX009 (ip), vehicle: water) 97 % of control.

Regarding `O=C(O)C(CCCCNC(=S)S)NC(=S)S.[Na+].[Zn+2]` (stereo unspecified), the T/C reads like this: under setting [5], 95 % of control; under setting [6], 95 % of control; under setting [7], 102 % of control.

As for `O=c1[nH]c(=O)n([C@H]2CCCO2)cc1F`, the T/C runs as follows: (dose: 44.0 mg/kg/injection, schedule: Q01DX009 (ip), vehicle: Klucel (hydroxypropylcellulose) (HPC)) 111 % of control; under setting [8], 104 % of control; (dose: 59.0 mg/kg/injection, schedule: Q01DX009 (ip), vehicle: Klucel (hydroxypropylcellulose) (HPC)) 114 % of control; (dose: 90.0 mg/kg/injection, schedule: Q01DX009 (ip), vehicle: Klucel (hydroxypropylcellulose) (HPC)) 124 % of control; (dose: 142.0 mg/kg/injection, schedule: Q04DX003 (ip), vehicle: Klucel (hydroxypropylcellulose) (HPC)) 109 % of control; (dose: 189.0 mg/kg/injection, schedule: Q04DX003 (ip), vehicle: Klucel (hydroxypropylcellulose) (HPC)) 115 % of control. Further, the T/C by setting is: under setting [9], 93 % of control; (dose: 201.0 mg/kg/injection, schedule: Q01DX009 (ip), vehicle: Klucel (hydroxypropylcellulose) (HPC)) 95 % of control; (dose: 316.0 mg/kg/injection, schedule: Q01DX001 (ip), vehicle: Klucel (hydroxypropylcellulose) (HPC)) 107 % of control; (dose: 421.0 mg/kg/injection, schedule: Q01DX001 (ip), vehicle: Klucel (hydroxypropylcellulose) (HPC)) 115 % of control; (dose: 641.0 mg/kg/injection, schedule: Q01DX001 (ip), vehicle: Klucel (hydroxypropylcellulose) (HPC)) 120 % of control; (dose: 645.0 mg/kg/injection, schedule: Q04DX003 (ip), vehicle: Klucel (hydroxypropylcellulose) (HPC)) 120 % of control.

For `CCCC(NC(=O)OCc1ccccc1)C(=O)NC(CO)C(=O)O` (stereo unspecified) (Cbz-[Nva]-Ser-OH; configuration not given here), the T/C by setting is: under setting [5], 94 % of control; under setting [6], 108 % of control; under setting [7], 94 % of control.

With `COC(=O)C1=C(C(=O)OC)P2(C)(C)N(C)C(=S)N2C1(c1ccccc1)c1ccccc1`, the T/C under setting [5] was 102 % of control, the T/C under setting [6] was 94 % of control and the T/C under setting [7] was 94 % of control.

Regarding `CN(C)c1nc(Cl)nc2c1nc(Cl)n2C1CCCCO1` (stereo unspecified), the T/C is 93 % of control under setting [5], 90 % of control under setting [6] and 102 % of control under setting [7].

`CCN(CC)CCNc1cc2c(c3c(=O)c4ccccc4sc13)CCCC2`: the T/C was 101 % of control (dose: 7.8 mg/kg/injection, schedule: Q01DX005 (ip), vehicle: other); 113 % of control (dose: 15.6 mg/kg/injection, schedule: Q01DX005 (ip), vehicle: other); 104 % of control (dose: 31.3 mg/kg/injection, schedule: Q01DX005 (ip), vehicle: other); 113 % of control (dose: 62.5 mg/kg/injection, schedule: Q01DX005 (ip), vehicle: other); 101 % of control (dose: 125.0 mg/kg/injection, schedule: Q01DX005 (ip), vehicle: other).

For the molecule `CC1(C(=O)O)C2C=CC3(CN(c4ccccc4)C(=O)C31c1ccccc1)O2` (stereo unspecified), the T/C (dose: 60.0 mg/kg/injection, schedule: Q01DX005 (ip), vehicle: Klucel (hydroxypropylcellulose) (HPC)) was 89 % of control; the T/C (dose: 120.0 mg/kg/injection, schedule: Q01DX005 (ip), vehicle: Klucel (hydroxypropylcellulose) (HPC)) is 100 % of control; the T/C (dose: 240.0 mg/kg/injection, schedule: Q01DX005 (ip), vehicle: Klucel (hydroxypropylcellulose) (HPC)) is 102 % of control.

For the molecule `Cc1cccc(Cl)c1NC(=O)NCCCN1CCCCC1C` (stereo unspecified), the T/C (dose: 60.0 mg/kg/injection, schedule: Q01DX005 (ip), vehicle: saline with Tween-80) was 94 % of control and the T/C (dose: 120.0 mg/kg/injection, schedule: Q01DX005 (ip), vehicle: saline with Tween-80) is 87 % of control.
